We go through 1 compound from ChEMBL document CHEMBL1759848, “[11C]sorafenib: radiosynthesis and preliminary PET study of brain uptake in P-gp/Bcrp knockout mice” (Bioorg Med Chem Lett, 2011).

What all share (type): ADME, tissue-based
Data set [1] relates to Brain. The data set can be described thus: Drug uptake in wild-type mouse brain after 60 mins. To be noted: in vivo, 1 h.
Data set [2] concerns Brain. The data set can be described thus: Drug uptake in P-gp/Bcrp knockout mouse brain by Positron emission tomography. Conditions: in vivo; call rule not given here.
Data set [3] deals with Brain. The data set can be described thus: Drug uptake in wild-type mouse brain by Positron emission tomography. To be noted: in vivo.
For data set [4], the system named is Brain. As to the kind of experiment: Drug uptake in P-gp/Bcrp knockout mouse brain after 60 mins. Conditions: in vivo, 1 h.

Turning to `CNC(=O)c1cc(Oc2ccc(N[11C](=O)Nc3ccc(Cl)c(C(F)(F)F)c3)cc2)ccn1` [[11C]-SORAFENIB], the values for the SUV in the data set on Brain [1] and in the data set with Brain [4] were 18.83 and 6.72, respectively. For the same compound, the Drug uptake entry in the data set with Brain [2] and with Brain [3] was “Active” each time.
